According to the NIST ThermoML archive (doi:10.1021/je500239t):
Where “and” joins values, the source holds several entries; their conditions need not be identical. Equal entries are not always repeated.

Details: for mass density: Liquid, isochoric method; for surface tension liquid-gas: Ring tensiometer

CCCCCCCCCCCCCC[P+](CCCCCC)(CCCCCC)CCCCCC.N#C[N-]C#N [tetradecyl(trihexyl)phosphonium dicyanamide]
Details | mass density [kg/m3]
240.45 K, 9948.1 kPa | 936.26
247.9 K, 20013 kPa | 935.78
248.45 K, 1061.1 kPa | 928.34
255.19 K, 9753 kPa | 927.91
255.47 K, 29932 kPa | 935.43
255.48 K, 30358 kPa | 935.75
262.34 K, 100 kPa | 919.18
263.19 K, 40368 kPa | 935.25
263.31 K, 20048 kPa | 927.4
265.01 K, 1331.4 kPa | 918.74
268.5 K, 100 kPa | 915.58
271.01 K, 49601 kPa | 934.43
271.54 K, 9121.6 kPa | 918.33
271.95 K, 29894 kPa | 926.34
273.37 K, 100 kPa | 912.9
278.2 K, 100 kPa | 910.1
279.99 K, 39498 kPa | 925.84
280.34 K, 20094 kPa | 917.77
281.41 K, 1813.9 kPa | 908.67
283.3 K, 100 kPa | 907.06
288.09 K, 48847 kPa | 925.34
288.37 K, 100 kPa | 904.29
289.04 K, 30059 kPa | 917.24
289.74 K, 10390 kPa | 908.18
293.14 K, 100 kPa | 901.37
297.73 K, 39781 kPa | 916.7
298.14 K, 20028 kPa | 907.66
298.15 K, 119.7 kPa | 898.63
298.21 K, 100 kPa | 898.81
298.4 K, 1119.7 kPa | 898.73
303.08 K, 100 kPa | 895.87
306.53 K, 28505 kPa | 907.16
307.06 K, 9995.2 kPa | 898.22
307.27 K, 49935 kPa | 916.12
308.18 K, 100 kPa | 892.91
313.09 K, 100 kPa | 890.2
316.64 K, 19643 kPa | 897.65
316.65 K, 39471 kPa | 906.55
318.03 K, 100 kPa | 887.53
318.37 K, 1160.7 kPa | 887.84
323.32 K, 100 kPa | 884.69
327.54 K, 49978 kPa | 905.9
327.66 K, 10032 kPa | 887.3
327.67 K, 30114 kPa | 897.01
328.16 K, 100 kPa | 881.94
332.96 K, 100 kPa | 879.42
338.03 K, 100 kPa | 876.79
338.23 K, 19830 kPa | 886.69
338.63 K, 41032 kPa | 896.36
339.22 K, 1500.6 kPa | 876.45
342.86 K, 100 kPa | 873.89
348.12 K, 100 kPa | 871.1
348.37 K, 49973 kPa | 895.79
349.27 K, 10043 kPa | 875.89
349.28 K, 29863 kPa | 886.05
353.28 K, 100 kPa | 868.29
358 K, 100 kPa | 865.81
364.53 K, 100 kPa | 862.18

Details | surface tension liquid-gas
283.57 K | 32.46 mN/m
283.61 K | 32.69 mN/m
288.08 K | 32.54 mN/m
288.09 K | 31.93 mN/m
293.35 K | 31.85 mN/m
293.41 K | 32.02 mN/m
298.2 K | 31.68 mN/m
298.24 K | 31.82 mN/m
303.15 K | 30.98 mN/m
303.2 K | 31.32 mN/m
308.16 K | 30.28 mN/m
308.17 K | 30.84 mN/m
313.21 K | 29.67 mN/m
313.25 K | 30.4 mN/m
318.29 K | 29.57 mN/m
318.3 K | 30.08 mN/m
323.33 K | 29.65 mN/m
323.39 K | 29.41 mN/m
328.05 K | 28.72 mN/m
328.09 K | 29.18 mN/m
333.58 K | 28.62 mN/m and 28.77 mN/m
338.55 K | 28.21 mN/m
338.57 K | 28.35 mN/m
343.55 K | 27.83 mN/m
343.57 K | 27.93 mN/m
348.56 K | 27.59 mN/m
348.64 K | 27.56 mN/m
353.46 K | 26.45 mN/m
353.49 K | 27.11 mN/m
358.44 K | 26.17 mN/m
358.57 K | 26.7 mN/m
365.15 K | 25.74 mN/m
365.21 K | 26.14 mN/m
